The results in this text go back to publication PMC2943150 (Journal of medicinal chemistry, 2009).

The test has as its target HIV-1 protease (Human immunodeficiency virus type 1 group M subtype B, UniProt P04585). The test is described as follows: HIV-1 protease enzyme inhibition, assay protocol of Toth and Marshall. Type of test: biochemical.

Usually Ki stands for the dissociation constant of the complex between target and ligand, obtained from inhibition or displacement. The compound `COc1ccc2c(c1)OCCCCCCCN(C[C@@H](O)[C@H](Cc1ccccc1)NC(=O)O[C@H]1CO[C@H]3OCC[C@H]31)S2(=O)=O` [Inhibitor 15d] registered an inhibition constant Ki of 0.08 ± 0.02 nM.

The compound `COc1ccc2c(c1)OCCCC/C=C\CN(C[C@@H](O)[C@H](Cc1ccccc1)NC(=O)O[C@H]1CO[C@H]3OCC[C@H]31)S2(=O)=O` [Inhibitor 14e] displayed a Ki of 0.017 ± 0.001 nM.
